Assay results reported in patent US11839212B2, “Synergistic pesticidal compositions and methods for delivery of insecticidal active ingredients” (0903608 B.C. Ltd., priority 2018, dated 2023).
Where two headings read alike, the source gives them in different places.

Legend:
Assay in all cases: Synergistic Growth Inhibition Assay (MIC and FIC index, 96-well, resazurin)
Type in all cases: cell-based
[1] = tested on: Alternaria solani; details: Alternaria solani, […], Compound B alone, 7 days incubation, read-out: MIC (B)
Protocol: In some embodiments, the synergistic action between the pesticidal active ingredient, and the at least one C6-C10 (or alternatively C11 or C12) saturated or unsaturated aliphatic acid components of the pesticidal compositions according to embodiments of the present disclosure was tested using a Synergistic Growth Inhibition Assay, which is derived from and related to a checkerboard assay as is known in the art for testing of combinations of antimicrobial agents. In the Synergistic Growth Inhibition Assay used in accordance with some embodiments of the present disclosure, multiple dilutions of combinations of pesticidal active ingredient and at least one C6-C10 saturated or unsaturated aliphatic acid agents are tested in individual cells for inhibitory activity against a target pest or pathogenic organism. In one such embodiment, the combinations of pesticidal active ingredient and C6-C10 (or alternatively C11 or C12) saturated or unsaturated aliphatic acid agents may preferably be tested in decreasing concentrations. In a further such embodiment, the combinations of pesticidal active ingredient and C6-C10 (or alternatively C11 or C12) saturated or unsaturated aliphatic acid agents may be tested in increasing concentrations. These multiple combinations of the pesticidal active ingredient and at least one C6-C10 (or alternatively C11 or C12) saturated or unsaturated aliphatic acid agents may be prepared in 96-well microtiter plates. In one such embodiment, the Synergistic Growth Inhibition Assay then comprises rows which each contain progressively decreasing concentrations of the pesticidal active ingredient and one or more C6-C10 (or alternatively C11 or C12) saturated or unsaturated aliphatic acid agents to test for the MIC of the agents in combination at which growth of the target pest or pathogen is inhibited. Thus, each well of the microtiter plate is a unique combination of the two agents, at which inhibitory efficacy of the combination against the target pest or pathogen can be determined.
In one embodiment according to the present disclosure, for each row of microtiter cells in the Synergistic Growth Inhibition Assay, the FIC index is calculated from the lowest concentration of the pesticidal active ingredient and one or more C6-C10 saturated or unsaturated aliphatic acid agents necessary to inhibit growth of a target pest or pathogen. The FIC of each component is derived by dividing the concentration of the agent present in that well of the microtiter plate by the minimal inhibitory concentration (MIC) needed of that agent alone to inhibit growth of the target pest or pathogen. The FIC index is then the sum of these values for both agents in that well of the microtiter plate. […] Fractional inhibitory concentration indices may then used as measure of synergy. […] When the FIC index is equal to 1, the combination is additive.
Then, serial dilutions of these initial compositions in successive wells in the row of the microtiter plate were used to assay the pesticidal composition under the same conditions to determine the concentration of the composition combining the two agents corresponding to the microtiter well in which growth inhibition of the target pest or organism ceases.
A culture of the representative fungal pathogen, namely Fusarium oxysporum, Botrytis cinerea, or Sclerotinia sclerotiorum, for example, is grown to exponential phase in potato dextrose broth (PDB).

[2] = tested on: Sclerotinia sclerotiorum; details: Sclerotinia sclerotiorum, […], Compound B alone, read-out: MIC (B)
In short: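 Checkerboard of pesticidal active ingredient combined with C6–C10 (or C11/C12) aliphatic acids in serial dilutions against Sclerotinia sclerotiorum. Growth scored by resazurin colour change plus visual inspection; FIC index is the sum of each agent's concentration divided by its MIC alone, with 1 indicating additivity.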

[3] = tested on: Botrytis cinerea; details: Botrytis cinerea, 48 h, Compound B alone, 48 hours incubation, read-out: MIC (B)
In short: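 Checkerboard microdilution of pesticidal active ingredient combined with C6–C10 (or C11/C12) aliphatic acid against Botrytis cinerea, with growth read by resazurin colour change plus visual check. FIC index = sum of each agent's concentration in the inhibiting well divided by its MIC alone; 1 denotes additivity.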

[4] = tested on: Fusarium oxysporum; details: Fusarium oxysporum, Compound B alone
In short: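 Checkerboard dilutions of pesticidal active plus C6–C10 (or C11/C12) aliphatic acid in 96-well plates; growth scored by resazurin colour change, optionally visual.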

[5] = 48 h, Table 30, 48 hours incubation, read-out: MIC (B)
[6] = 48 h, Table 32, 48 hours incubation, read-out: MIC (B)
[7] = 48 h, Table 28, 48 hours incubation, read-out: MIC (B)

Compound | MIC ([1]; Table 60) | MIC ([2]; 7 days incubation) | MIC [1] | MIC ([2]; Table 33, 7 days incubation) | MIC ([2]; Table 34, 7 days incubation) | MIC ([2]; Table 35, 7 days incubation) | MIC ([2]; Table 37, 7 days incubation) | MIC ([2]; Table 38, 7 days incubation) | MIC ([2]; Table 39, 7 days incubation) | MIC ([2]; Table 40, 7 days incubation) | MIC ([3]; Table 43) | MIC ([3]; Table 44) | MIC ([3]; Table 45) | MIC ([3]; Table 49) | MIC ([3]; Table 50) | MIC ([3]; Table 56) | MIC ([3]; Table 58) | MIC [4, 5] | MIC [4, 6] | MIC ([2]; Table 41, 7 days incubation) | other results
CCCCCCCCC(=O)O [Nonanoic acid, nonanoic acid] | 156 µg/mL | 39.1 µg/mL | – | – | – | – | – | – | – | – | – | – | – | – | – | – | – | – | – | – | MIC ([2]; Table 16, incubation 7 days): 19.5 µg/mL; MIC ([2]; Table 17, incubation 7 days): 78.1 µg/mL; MIC ([2]; Table 19, incubation 7 days): 78.1 µg/mL; MIC ([2]; Table 20A, incubation 7 days): 39.1 µg/mL; MIC ([3]; Table 24): 156 µg/mL; MIC ([4]; 48 h, Table 12, incubation 48 hours, read-out: MIC (B)): 312 µg/mL
CCCCCCC/C=C/C(=O)O [Trans-2-decenoic acid, trans-2-decenoic acid] | 78.1 µg/mL | 19.5 µg/mL | 39.1 µg/mL | 19.5 µg/mL | 19.5 µg/mL | 9.77 µg/mL | 39.1 µg/mL | 19.5 µg/mL | 19.5 µg/mL | 19.5 µg/mL | 19.5 µg/mL | 78.1 µg/mL | 39.1 µg/mL | 78.1 µg/mL | 39.1 µg/mL | 78.1 µg/mL | 156 µg/mL | 78.1 µg/mL | 156 µg/mL | – | MIC ([2]; Table 42, incubation 7 days): 19.5 µg/mL; MIC ([3]; Table 51): 19.5 µg/mL; MIC ([4]; 24 h, Table 3, 24 hour incubation, read-out: MIC(B)): 36.2 µg/mL; MIC ([4]; 24 h, Table 4, 24 hour incubation, read-out: MIC (B)): 36.2 µg/mL
CCCCCC/C=C/C(=O)O [Trans-2-nonenoic acid] | 78.1 µg/mL | 78.1 µg/mL | 156 µg/mL | 19.5 µg/mL | – | – | 78.1 µg/mL | 39.1 µg/mL | 19.5 µg/mL | 19.5 µg/mL | 78.1 µg/mL | 39.1 µg/mL | 39.1 µg/mL | 156 µg/mL | – | 156 µg/mL | – | 312 µg/mL | 312 µg/mL | 39.1 µg/mL | MIC ([2]; Table 36, 7 days incubation): 39.1 µg/mL; MIC ([3]; Table 46): 19.5 µg/mL; MIC ([3]; Table 47): 78.1 µg/mL; MIC [4, 7]: 156 µg/mL
CCCCCCCC/C=C/C(=O)O [Trans-2-undecenoic acid] | 156 µg/mL | – | – | 19.5 µg/mL | – | – | – | 39.1 µg/mL | 39.1 µg/mL | – | 156 µg/mL | 78.1 µg/mL | 78.1 µg/mL | 78.1 µg/mL | 39.1 µg/mL | 39.1 µg/mL | 156 µg/mL | – | 156 µg/mL | 39.1 µg/mL | MIC ([3]; Table 47): 78.1 µg/mL; MIC ([3]; Table 48): 78.1 µg/mL
CC/C=C/CC(=O)O [Trans-3-hexenoic acid, trans-3-hexenoic acid] | 312 µg/mL | 312 µg/mL | – | 156 µg/mL | 156 µg/mL | 156 µg/mL | – | – | – | – | 156 µg/mL | 156 µg/mL | 312 µg/mL | – | – | – | – | 312 µg/mL | – | 156 µg/mL | MIC ([4]; 24 h, Table 1, 24 hour incubation, read-out: MIC(B)): 312 µg/mL; MIC ([4]; 24 h, Table 2, 24 hour incubation, read-out: MIC (B)): 312 µg/mL; MIC ([4]; 48 h, Table 27, 48 hours incubation, read-out: MIC (B)): 312 µg/mL; MIC [4, 7]: 312 µg/mL; MIC ([4]; 48 h, Table 31, 48 hours incubation, read-out: MIC (B)): 156 µg/mL
